Laboratory results published in patent publication US5115096A, “Amphiregulin: a bifunctional growth modulating glycoprotein” (Oncogen, priority 1989, dated 1992).
Where two headings read alike, the source gives them in different places.

Columns and labels:
Type in all cases: cell-based, human
[1] = tested on: AR RNA in MCF-7 (HTB 22) cells; experiment: Northern blot of AR RNA in MCF-7 cells
Text: c-AMP is another regulatory molecule which exerts diverse effects on cells, primarily through cAMP-dependent protein kinase A. Intracellular levels of cAMP are regulated by a combination of receptor-mediated activation and adenylate cyclase inhibition. Some studies indicate that TPA and cAMP induced gene expression may converge as a common pathway. To study the regulation of AR gene expression, we chose to look at the effect of various activators or inhibitors of both these regulatory pathways on the production of AR specific RNA in MCF-7 cells.
Forskolin is a drug which activates adenylate cyclase, resulting in increased intracellular cAMP.
Ten or twenty μg of total RNA was electrophoresed on 1.2% agarose/formaldehyde gels for Northern analysis. The agarose/formaldehyde gels were prepared in 40 mM N-morpholinopropanesulfonic acid (MOPS), pH 7.0/1 mM EDTA/10 mM sodium acetate/2/2 M deionized formaldehyde (pH5.6) in an IBI VCV gel apparatus with frosted plates. RNA was denatured in the same buffer with 50% formamide at 65° C., and run in 1×MOPS, at 20-30 mA for 3-5 hr. […] Bands were scored as (+) if clearly visible after overnight exposure, (+/-) if visible after 3 day exposure, and (++) if detectable after 6 hr. […]

[2] = tested on: AR 5' flanking region driving CAT gene in MCF-7 cells; experiment: CAT assay, AR 5' regulatory region/CAT constructs transiently introduced into MCF-7 cells
Protocol: MCF-7 cells were grown as described in Section 6.2.1 supra. For each assay, 1-2×10^6 cells were plated in a 100 mm dish in 10 ml media, and 24 hours later, 20 μg calcium phosphate precipitated supercoiled plasmid DNA was added to the cells (Southern and Berg, 1982). The cells were rinsed with fresh media 4 hours after transfection and subjected to a 25% glycerol shock for 90 seconds. Cells were again rinsed and overlayed with 20 ml fresh media containing 0 or 100ng/ml TPA. Cells were washed and harvested 40 hours after glycerol shock and lysed by sonication in 100 μl 1 0.25 M Tris-HCl (pH 7.8). CAT activity was assayed essentially as detailed by Gorman et al. (1982). Cell extract (3-50 μl) was added to […] ^14 C-chloramphenicol (NEN), in a 150 μl reaction volume of 0.5 M Tris (pH 7.8), 0.5 mM AcetylCoA. The reactions were incubated at 37° C. for 2 hours, extracted with 1 ml ethyl acetate and developed on silica gel TLC plates with CHCl3 :1-butanol (95:5). TLC plates were dried and autoradiographed. The acetylated and unacetylated ^14 C-chloramphenicol was quantitated by counting excised spots in Optifluor. Units of CAT enzymatic activity were calculated as μg chloramphenicol acetylated per hour per μg protein in the cell extract.
Primer extension was performed on MCF-7 RNA with 2 separate oligonucleotides from exon 1. […]

[3] = tested on: AR RNA in MDA-MB-361 (HTB 27) cells; experiment: Northern blot of AR RNA, tumor cell line panel; parameters: key: +: clearly visible after overnight exposure; +/-: visible after 3 day exposure; ++: detectable after 6 hr; conditions: 24 hour induction with TPA
Protocol: (§1) Ten or twenty μg of total RNA was electrophoresed on 1.2% agarose/formaldehyde gels for Northern analysis. The agarose/formaldehyde gels were prepared in 40 mM N-morpholinopropanesulfonic acid (MOPS), pH 7.0/1 mM EDTA/10 mM sodium acetate/2/2 M deionized formaldehyde (pH5.6) in an IBI VCV gel apparatus with frosted plates. RNA was denatured in the same buffer with 50% formamide at 65° C., and run in 1×MOPS, at 20-30 mA for 3-5 hr. The gel was rinsed in 10×SSC for 30 min and transferred to Hybond-N membranes (Amersham), UV-crosslinked (1200 μJoules), prehybridized and hybridized in 5×SSPE (1×SSPE is 0.18 M NaCl/10 mM sodium phosphate, pH 7.7, 0.1 mM EDTA), 5×Denhardt's, 0.5% SDS, and 20 μg/ml denatured salmon sperm DNA as carrier. Hybridizations were carried out at 42° C. for 16 hr with 2×10^6 cpm/ml of the ^ 32 P-ARBP1. Blots were washed several times in 2×SSC with 0.1% SDS at room temperature followed by 1×SSC/0.1% SDS, 65° C., and exposed on Kodak X-OMAT with two Dupont Lightning Plus intensifying screens at -70° C. Bands were scored as (+) if clearly visible after overnight exposure, (+/-) if visible after 3 day exposure, and (++) if detectable after 6 hr.
(§2) A panel of tumor cell lines was tested for AR RNA levels both before and after 24 hour induction with TPA. With but a few exceptions, the only sources of detectable AR RNA were in human breast cancer lines treated with TPA.

[4] = tested on: AR RNA in HUF foreskin fibroblast cells; experiment: Northern blot of AR RNA, tumor cell line panel; parameters: key: +: clearly visible after overnight exposure; +/-: visible after 3 day exposure; ++: detectable after 6 hr; conditions: 24 hour induction with TPA
Protocol: as §1, §2

[5] = tested on: AR RNA in HEPM (CRL 1486) cells; experiment: Northern blot of AR RNA, tumor cell line panel; parameters: key: +: clearly visible after overnight exposure; +/-: visible after 3 day exposure; ++: detectable after 6 hr; conditions: 24 hour induction with TPA
Protocol: as §1, §2

AR RNA in BT-476 cells = experiment: Northern blot of AR RNA, tumor cell line panel; parameters: key: +: clearly visible after overnight exposure; +/-: visible after 3 day exposure; ++: detectable after 6 hr; conditions: BT-476, 24 hour induction with TPA
Protocol: as §1, §2

[6] = tested on: AR RNA in HBL-100 (HTB 124) cells; experiment: Northern blot of AR RNA, tumor cell line panel; parameters: key: +: clearly visible after overnight exposure; +/-: visible after 3 day exposure; ++: detectable after 6 hr; conditions: 24 hour induction with TPA
Protocol: as §1, §2

[7] = tested on: AR RNA in BT-474 (HTB 20) cells; experiment: Northern blot of AR RNA, tumor cell line panel; parameters: key: +: clearly visible after overnight exposure; +/-: visible after 3 day exposure; ++: detectable after 6 hr; conditions: 24 hour induction with TPA
Protocol: as §1, §2

[8] = tested on: AR RNA in MDA-MB-157 (HTB 24) cells; experiment: Northern blot of AR RNA, tumor cell line panel; parameters: key: +: clearly visible after overnight exposure; +/-: visible after 3 day exposure; ++: detectable after 6 hr; conditions: 24 hour induction with TPA
Protocol: as §1, §2

[9] = tested on: AR RNA in JEG-3 (HTB 36) cells; experiment: Northern blot of AR RNA, tumor cell line panel; parameters: key: +: clearly visible after overnight exposure; +/-: visible after 3 day exposure; ++: detectable after 6 hr; conditions: 24 hour induction with TPA
Protocol: as §1, §2

[10] = tested on: AR RNA in SK-BR-3 (HTB 30) cells; experiment: Northern blot of AR RNA, tumor cell line panel; parameters: key: +: clearly visible after overnight exposure; +/-: visible after 3 day exposure; ++: detectable after 6 hr; conditions: 24 hour induction with TPA
Protocol: as §1, §2

[11] = tested on: transcription of AR in MCF-7 cells; experiment: Nuclear run-off, transcription of AR; conditions: in response to TPA
MCF-7 cells = experiment: Morphology and cell number of MCF-7 cells; conditions: MCF-7 cells compared to untreated cells
Text: TPA induces dramatic morphological changes in a dose-dependent manner. Following TPA treatment, MCF-7 cells lose their well defined morphology, become rounded, and spread out.

Structure (SMILES): C=C[C@@]1(C)CC(=O)[C@]2(O)[C@@]3(C)[C@@H](O)CCC(C)(C)[C@@H]3[C@H](O)[C@H](OC(C)=O)[C@@]2(C)O1 [Forskolin]
- AR mRNA ([1]; MCF-7 cells, 25 uM for 4 hours): marked stimulation

Structure (SMILES): CCCCCCCCCCCCCC(=O)O[C@@H]1[C@@H](C)[C@@]2(O)[C@@H](C=C(CO)C[C@]3(O)C(=O)C(C)=C[C@@H]23)[C@@H]2C(C)(C)[C@]12OC(C)=O [TPA, 12-0-tetradecanoyl-phorbol-13-acetate]
- fold induction at 0.1 µg/mL ([2]; MCF7, 40 h, pXARE1CAT (-648 to +40) in MCF-7 cells, addition of TPA, read-out: stimulation of CAT activity): 6 to 7
- fold induction at 0.1 µg/mL ([2]; MCF7, deletion mutants E1a-E1h in MCF-7 cells, 40 hour treatment with 100 ng/ml TPA, read-out: enhanced expression of 5' CAT deletion constructs): 3.5 to 7
- time after treatment at which increase in the 1.4 kb AR RNA species was seen ([1]; MCF-7 cells treated with TPA for 0-48 hours): ≤ 1 h
- AR RNA Level, TPA INDUCED [3]: ++
- AR RNA Level, TPA INDUCED [4]: +/-
- AR RNA Level, TPA INDUCED [5]: +/-
- AR RNA Level, TPA INDUCED (AR RNA in BT-476 cells): +
- AR RNA Level, TPA INDUCED [6]: +
- AR RNA Level, TPA INDUCED [7]: +
- AR RNA Level, TPA INDUCED [8]: ++
- AR RNA Level, TPA INDUCED [9]: +/-
- AR RNA Level, TPA INDUCED [10]: +
- increased transcription of AR [11]: 3-5 fold
- effect on cell number (MCF-7 cells): dose-dependent reduction in cell number
